In PMC12207370, “Macrocyclic Peptide Probes for Immunomodulatory Protein CD59: Potent Modulators of Bacterial Toxin Activity and Antibody‐Dependent Cytotoxicity” (Angewandte Chemie (International Ed. in English), 2025):
Numbered stars: 1 amine (or outer) side, 2 acyl side, 3 side chain; on linkers, the order of the positions; unused ones are H or OH. Bridge positions count the residues as written; N and C are the ends. Square brackets hold non-standard residues; d marks the D form. Peptide text beside a SMILES is read from it. I, II: the chains in the order shown. * marks the point of attachment. X1 = CCCCCCCCCCCCCCCCCOCCOCCOCCOCCOCCOCCOCCOCCOCCOCCOCCOCCOCCC(=O)*; CO(CH2CH2O)5CH2CH2CO = O=C(CCOCCOCCOCCOCCOCCC(=O)[*:2])[*:1]

Legend:
CD59 = molecular target: T1, CD59 (Homo sapiens, UniProt P13987); assay: SPR (Biacore S200) binding to immobilised biotinylated CD59; details: SPR, immobilized CD59
T1 construct: Recombinant soluble human CD59 with an additional C-terminal cysteine residue
T1 sequence (P13987 26-102 limits assumed): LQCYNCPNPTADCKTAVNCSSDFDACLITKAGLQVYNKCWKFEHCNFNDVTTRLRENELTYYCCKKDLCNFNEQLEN
Source text: To identify which of these peptides bound CD59 most tightly, we used a Biacore S200 surface plasmon resonance (SPR) platform to investigate CD59 affinity (Figure 2b), using a known protein binding partner of CD59 (rILYd4) as a benchmark. Four 13‐mer macrocyclic peptides and one 14‐mer macrocyclic peptide were identified with a dissociation constant (K D) lower than that of rILYd4. Considering their fourfold lower molecular weight, these peptides bind with up to 19‐fold greater efficiency compared to rILYd4 (Figure 2b).
Equipment: SPR analysis was performed on a Cytiva Biacore S200. All buffers were prepared using ultra-pure water from a Millipore Elix Q-Gard purification system. Solutions and buffers were filtered with a 0.22 μm filter and degassed prior to use. The assays were performed on Series S streptavidin (SA) sensor chip (Cytiva). PBS-P+ buffer 10X (0.2 M phosphate buffer with 27 mM KCl, 1.37 M NaCl and 0.5% Surfactant P20 (Tween 20)) was used for the preparation of the assay running buffer (PBS-P+ 1X).
Immobilisation of CD59-biotin: Biotinylated CD59 was immobilised on the surface of a SA chip by non-covalent capture (biotin streptavidin interaction) as per the manufacturer’s instructions. The system was initially primed with running buffer and normalised using BIAnormalizing solution (70% (w/w) glycerol) (Cytiva). Before immobilising the protein, the surface was conditioned with three consecutive one-minute injections of 1 M NaCl in 50 mM NaOH. Biotinylated CD59 (0.5 µg/mL in running buffer) was flowed over the protein (active) channel for different contact times to achieve different immobilisation levels (600–1200 RU). After each protein injection, the needle and injection loop were washed using 50% isopropanol in 1 M NaCl and 50 mM NaOH. A reference channel was prepared by similar treatment; however, running buffer alone rather than CD59-biotin in running buffer was flowed over the chip the same way.
Interaction analysis: Multicycle kinetic and affinity approach was used for the analysis of peptides interactions with CD59. Two-fold serial dilutions of each peptide were prepared in running buffer and were flowed over both the ligand and reference channel using a flow rate (30 μL/min) at 25 °C. A zero concentration was added to each analyte series and three cycles of buffer were run between analytes to restore the baseline. The obtained sensorgrams were analysed using the embedded Biacore S200 Evaluation software. The data were normalised by subtracting RU values of the reference channel and zero concentration of the analyte series. Kinetic rate constants (kon and koff) were determined by fitting the normalised data using the built-in Kinetic analysis model (non-linear regression with a 1:1 Langmuir binding model), KD values were then calculated from the two rate constants ([…]). The KD values were determined again by fitting the normalised data using the built-in Affinity analysis model (1:1 Langmuir binding model).

[1] = Solubility and aggregation behaviour of hit peptides (stated in words); format: physicochemical
[2] = tested on: antibody-sensitized human erythrocytes; assay: Enhancement of CDC lysis assay (complement dependent cytotoxicity) in antibody-sensitized erythrocytes; format: cell-based
Experimental: Figure 5 CP‐06 and optimized analogues control CD59 activity in cellular assays. a) ILY lysis assay. SK‐BR‐3 cells were treated with CP‐06 (n = 4) or CP‐06[W3A] (n = 2), then with Sytox green dye and ILY ([…]). The plate was imaged immediately with the IncuCyte S3 Live Cell Analysis System and then every hour up to 14 h. The linear phase of lysis was taken from each well, and linear regression was performed to extract individual slope values, which were then normalized to maximum lysis rate (Sytox and ILY) vs. 0% lysis (Sytox only) within each plate. […] Human erythrocytes were sensitized with 1% w/v anti‐human erythrocyte Ab with 5% v/v human serum in the presence of a serial dilution of CP‐06C18 (black bars) or CP‐06scrmb‐C18 (red bars) Percent lysis enhancement was calculated by normalization to 0% enhancement (buffer well) and plotted as the mean of three biological replicates ± SEM. […]
Enhancement of CDC lysis assay: A 50% (v/v) erythrocyte stock suspension was prepared as described above. […] The following controls were included: (1) a positive control which contained Tween-20 (Cf = 1%), (2) a negative control well that contained PBS, and (3) a vehicle only well that contained PBS without erythrocytes to subtract the absorbance of the vehicle. […]

SK-BR-3 cells = assay: ILY lysis assay (Sytox green, IncuCyte) in SK-BR-3 cells; format: cell-based, human
Experimental: Figure 5 CP‐06 and optimized analogues control CD59 activity in cellular assays. a) ILY lysis assay. SK‐BR‐3 cells were treated with CP‐06 (n = 4) or CP‐06[W3A] (n = 2), then with Sytox green dye and ILY ([…]). The plate was imaged immediately with the IncuCyte S3 Live Cell Analysis System and then every hour up to 14 h. The linear phase of lysis was taken from each well, and linear regression was performed to extract individual slope values, which were then normalized to maximum lysis rate (Sytox and ILY) vs. 0% lysis (Sytox only) within each plate. […] Human erythrocytes were sensitized with 1% w/v anti‐human erythrocyte Ab with 5% v/v human serum in the presence of a serial dilution of CP‐06C18 (black bars) or CP‐06scrmb‐C18 (red bars) Percent lysis enhancement was calculated by normalization to 0% enhancement (buffer well) and plotted as the mean of three biological replicates ± SEM.
Determination of optimal ILY concentration: 20,000 SK-BR-3 cells were seeded in a 96-well plate (Grenier, 655180) 24 h before treatment. […] Any bubbles were removed by a de-bubbler and the plate was immediately transferred to IncuCyte® S3 Live Cell Analysis System where each well was imaged 4 times at 10 × magnification with phase contrast and green fluorescence (λex 440–480 nm, λem = 504–544 nm) every hour for 24 h. […]

CC(C)[C@@H]1NC(=O)[C@H](CO)NC(=O)[C@H](CO)NC(=O)[C@H](CCCNC(=N)N)NC(=O)[C@H](CC(N)=O)NC(=O)CNC(=O)[C@H](Cc2c[nH]c3ccccc23)NC(=O)[C@H]([C@@H](C)O)NC(=O)[C@H](Cc2c[nH]c3ccccc23)NC(=O)[C@H](CO)NC(=O)[C@@H](Cc2ccc(O)cc2)NC(=O)CSC[C@@H](C(N)=O)NC(=O)CNC(=O)[C@H](CCCNC(=N)N)NC1=O [CP-06] (HELM PEPTIDE1{[O=C(C[*:3])[*:2]].[dY].S.W.T.W.G.N.R.S.S.V.R.G.C.[am]}$PEPTIDE1,PEPTIDE1,1:R3-15:R3$$$V2.0)
koff (CD59; read-out: Koff (dissociation rate constant)): 0.0204 s⁻¹ | kon (CD59; read-out: Kon (association rate constant)): 1.86e+06 M⁻¹ s⁻¹ | solubility (in words) [1]: good solubility

CCCCCCCCCCCCCCCCCOCCOCCOCCOCCOCCOCCOCCOCCOCCOCCOCCOCCOCCC(=O)NCCCC[C@H](NC(=O)CNC(=O)[C@@H]1CSCC(=O)N[C@H](Cc2ccc(O)cc2)C(=O)N[C@@H](CO)C(=O)N[C@@H](Cc2c[nH]c3ccccc23)C(=O)N[C@@H]([C@@H](C)O)C(=O)N[C@@H](Cc2c[nH]c3ccccc23)C(=O)NCC(=O)N[C@@H](CC(N)=O)C(=O)N[C@@H](CCCNC(=N)N)C(=O)N[C@@H](CO)C(=O)N[C@@H](CO)C(=O)N[C@@H](C(C)C)C(=O)N[C@@H](CCCNC(=N)N)C(=O)NCC(=O)N1)C(=O)NCC(N)=O [CP-06C18] ({CH2CO}-[dY]SWTWGNRSSVRGCGK(X1)G-NH2; thioether N-14)
enhancement of mAb-mediated CDC (in words) ([2]; anti-RBC antibody, 5% human serum): enhanced mAb‐mediated CDC in a dose‐dependent manner | lysis in the absence of anti-RBC (in words) ([2]; no anti-RBC antibody, Figure S4): Neither peptide caused lysis above background

CC(C)[C@@H]1NC(=O)[C@H](CO)NC(=O)[C@H](CO)NC(=O)[C@H](CCCNC(=N)N)NC(=O)[C@H](CC(N)=O)NC(=O)CNC(=O)[C@H](Cc2c[nH]c3ccccc23)NC(=O)[C@H]([C@@H](C)O)NC(=O)[C@H](Cc2c[nH]c3ccccc23)NC(=O)[C@H](CO)NC(=O)[C@@H](Cc2ccc(O)cc2)NC(=O)CSC[C@@H](C(=O)NCC(=O)N[C@@H](CCCCNC(=O)CCOCCOCCOCCOCCOCCC(=O)NCCCC[C@H](NC(=O)CNC(=O)[C@@H]2CSCC(=O)N[C@H](Cc3ccc(O)cc3)C(=O)N[C@@H](CO)C(=O)N[C@@H](Cc3c[nH]c4ccccc34)C(=O)N[C@@H]([C@@H](C)O)C(=O)N[C@@H](Cc3c[nH]c4ccccc34)C(=O)NCC(=O)N[C@@H](CC(N)=O)C(=O)N[C@@H](CCCNC(=N)N)C(=O)N[C@@H](CO)C(=O)N[C@@H](CO)C(=O)N[C@@H](C(C)C)C(=O)N[C@@H](CCCNC(=N)N)C(=O)NCC(=O)N2)C(=O)NCC(N)=O)C(=O)NCC(N)=O)NC(=O)CNC(=O)[C@H](CCCNC(=N)N)NC1=O [CP-06dimer] (I: {CH2CO}-[dY]SWTWGNRSSVRGCGKG-NH2 / II: {CH2CO}-[dY]SWTWGNRSSVRGCGKG-NH2; linker I:16-II:16 via CO(CH2CH2O)5CH2CH2CO; thioether I:N-I:14, II:N-II:14)
inhibition of ILY lysis (in words) (SK-BR-3 cells): completely inhibits ILY lysis
